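48-hour exposure; five concentrations; linearly interpolated endpoints. The concentration for 50% growth inhibition is given as GI50.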 Activity calls are given as the source filed them. Rule as the data show it: active = GI50 up to about 1.1 µM and inactive = higher.
Experiments:
Assay in all cases: inhibition of tumour cell growth, NCI panel, 48 h
SNB-19 = test system: SNB-19
UACC-257 = test system: UACC-257
LOX IMVI = test system: LOX IMVI
NCI-H460 = test system: NCI-H460
SF-268 = test system: SF-268
RXF 393 = test system: RXF 393
BT-549 = test system: BT-549
K562 = test system: K562
SNB-75 = test system: SNB-75
IGROV-1 = test system: IGROV-1
MCF7 = test system: MCF7
NCI-H522 = test system: NCI-H522
SK-OV-3 = test system: SK-OV-3
HCT-116 = test system: HCT-116
MDA-N = test system: MDA-N
SF-295 = test system: SF-295
NCI-H23 = test system: NCI-H23
HOP-92 = test system: HOP-92
SK-MEL-28 = test system: SK-MEL-28
CAKI-1 = test system: CAKI-1

Compound | GI50 (SNB-19) | GI50 (UACC-257) | GI50 (LOX IMVI) | GI50 (NCI-H460) | GI50 (SF-268) | GI50 (RXF 393) | GI50 (BT-549) | GI50 (K562) | GI50 (SNB-75) | GI50 (IGROV-1) | GI50 (MCF7) | GI50 (NCI-H522) | GI50 (SK-OV-3) | GI50 (HCT-116) | GI50 (MDA-N) | GI50 (SF-295) | GI50 (NCI-H23) | GI50 (HOP-92) | GI50 (SK-MEL-28) | GI50 (CAKI-1)
CC(C)Cc1ccc(C(C)/C=C2\CCC(CN3CCCCC3)C2=O)cc1 (stereo not given) | 12 µM (inactive) | 12.7 µM (inactive) | 2.01 µM (inactive) | 26.7 µM (inactive) | 3.66 µM (inactive) | 2.52 µM (inactive) | 18.5 µM (inactive) | 2.46 µM (inactive) | 15.6 µM (inactive) | 4.25 µM (inactive) | 1.64 µM (inactive) | 1.35 µM (inactive) | 20.5 µM (inactive) | 3.87 µM (inactive) | 3.7 µM (inactive) | 13.3 µM (inactive) | 7.29 µM (inactive) | 10.1 µM (inactive) | 3.21 µM (inactive) | 6.87 µM (inactive)
CC(C)(C)c1cc(OCc2nn3c(Cc4ccccc4)nnc3s2)c(Cl)cc1OCc1nn2c(Cc3ccccc3)nnc2s1 | 80.9 µM (inactive) | 23.6 µM (inactive) | 37.1 µM (inactive) | 28.2 µM (inactive) | 55.5 µM (inactive) | 17.1 µM (inactive) | 25.1 µM (inactive) | 17.3 µM (inactive) | 91 µM (inactive) | 20.7 µM (inactive) | 22.5 µM (inactive) | 23.5 µM (inactive) | > 100 µM (inactive) | 16.6 µM (inactive) | 36.5 µM (inactive) | 12.8 µM (inactive) | 39.1 µM (inactive) | 16.2 µM (inactive) | 36.2 µM (inactive) | 23.6 µM (inactive)
C=C1CC[C@@]2(OC1)OC1C[C@H]3[C@@H]4CC=C5C[C@@H](O)CC(OC6OCC(OC(=O)[C@@H](O)[C@@H](C)CC)C(OC(C)=O)C6OC6OC(C)C(O)C(O)C6O)[C@]5(C)[C@H]4CC[C@]3(C)C1[C@@H]2C (stereo not given in full) | 1.96 µM (inactive) | 2.21 µM (inactive) | 1.87 µM (inactive) | 1.72 µM (inactive) | 2.06 µM (inactive) | 1.93 µM (inactive) | 3.76 µM (inactive) | 2.01 µM (inactive) | 2 µM (inactive) | 2.56 µM (inactive) | 1.84 µM (inactive) | 1.76 µM (inactive) | 1.83 µM (inactive) | 1.65 µM (inactive) | 1.92 µM (inactive) | 1.75 µM (inactive) | 2.44 µM (inactive) | 3.3 µM (inactive) | 2.2 µM (inactive) | 2.65 µM (inactive)
COc1ccc(N2C(=O)C3c4[nH]c5ccc(OCc6ccccc6)cc5c4C4CCC(c5ccccc5)CC4C3C2=O)cc1 (stereo not given) | 11 µM (inactive) | 42.9 µM (inactive) | 15.2 µM (inactive) | 4.74 µM (inactive) | 6.85 µM (inactive) | 6.49 µM (inactive) | 4.55 µM (inactive) | 4.37 µM (inactive) | 7.82 µM (inactive) | 8.85 µM (inactive) | 29.6 µM (inactive) | 7.43 µM (inactive) | 4.98 µM (inactive) | 11.1 µM (inactive) | 22.6 µM (inactive) | 11 µM (inactive) | 9.62 µM (inactive) | 3.08 µM (inactive) | 1.94 µM (inactive) | 8.18 µM (inactive)
O=C1Nc2ccccc2/C1=C/c1c(Cl)[nH]c2ccc(O)cc12 | 3.21 µM (inactive) | 10.6 µM (inactive) | 2.75 µM (inactive) | 3.61 µM (inactive) | 3.77 µM (inactive) | 2.36 µM (inactive) | 4.84 µM (inactive) | 0.649 µM (active) | 1.95 µM (inactive) | 1.69 µM (inactive) | 1.17 µM (inactive) | 1.3 µM (inactive) | 1.71 µM (inactive) | 0.719 µM (active) | 0.194 µM (active) | 2.79 µM (inactive) | 2.63 µM (inactive) | 5.69 µM (inactive) | 7.05 µM (inactive) | 3.74 µM (inactive)
CCOC(=O)NN(C(=O)OCC)C(C(=O)C1=CCCCC1)N(NC(=O)OCC)C(=O)OCC | > 100 µM (inactive) | > 100 µM (inactive) | > 100 µM (inactive) | > 100 µM (inactive) | > 100 µM (inactive) | > 100 µM (inactive) | > 100 µM (inactive) | > 100 µM (inactive) | > 100 µM (inactive) | > 100 µM (inactive) | > 100 µM (inactive) | > 100 µM (inactive) | > 100 µM (inactive) | > 100 µM (inactive) | > 100 µM (inactive) | > 100 µM (inactive) | > 100 µM (inactive) | > 100 µM (inactive) | > 100 µM (inactive) | > 100 µM (inactive)
CCCCCCCCOC(=O)C12Oc3ccc(-c4ccc5c(c4O)C(=O)C4=C(O)CC(C)C(O)C4(C(=O)OCCCCCCCC)O5)c(O)c3C(=O)C1=C(O)CC(C)C2O (stereo not given) | 8.85 µM (inactive) | 34.8 µM (inactive) | 25.5 µM (inactive) | 4.66 µM (inactive) | 12.2 µM (inactive) | 2.7 µM (inactive) | 9.59 µM (inactive) | 2.93 µM (inactive) | 4.99 µM (inactive) | 8.67 µM (inactive) | 11.4 µM (inactive) | 8.36 µM (inactive) | 18.7 µM (inactive) | 7.11 µM (inactive) | 18 µM (inactive) | 8.41 µM (inactive) | 10.2 µM (inactive) | 8.45 µM (inactive) | 18.2 µM (inactive) | 25.2 µM (inactive)
COc1ccc2nc3cc(Cl)ccc3c(NCCCCCC(=O)NC(COc3cnc4c(ccc5cccnc54)c3)COc3cnc4c(ccc5cccnc54)c3)c2c1 | 13.6 µM (inactive) | 8.93 µM (inactive) | 3.72 µM (inactive) | 5.47 µM (inactive) | 12.8 µM (inactive) | 10.8 µM (inactive) | 10.5 µM (inactive) | 3.43 µM (inactive) | 0.0313 µM (active) | 10 µM (inactive) | 5.04 µM (inactive) | 26.9 µM (inactive) | 21.9 µM (inactive) | 3.94 µM (inactive) | 19 µM (inactive) | 20.8 µM (inactive) | 28.2 µM (inactive) | > 100 µM (inactive) | 17.6 µM (inactive) | 36.1 µM (inactive)
CCc1nc(N)nc(N)c1-c1ccc(Cl)c([N+](=O)[O-])c1 | 10.5 µM (inactive) | 6.14 µM (inactive) | 0.0524 µM (active) | < 0.028 µM (active) | 0.239 µM (active) | 10.8 µM (inactive) | 31.2 µM (inactive) | 0.0156 µM (active) | 4.29 µM (inactive) | 0.0778 µM (active) | 0.274 µM (active) | 0.719 µM (active) | 11.2 µM (inactive) | 0.0224 µM (active) | 0.0764 µM (active) | 0.0637 µM (active) | 0.0887 µM (active) | 5.16 µM (inactive) | 37.9 µM (inactive) | 0.242 µM (active)
C=C(Cl)C(Cl)(CBr)CCCC(C)C (stereo not given) | 18.7 µM (inactive) | 14.6 µM (inactive) | > 100 µM (inactive) | 15.7 µM (inactive) | 15.1 µM (inactive) | 7.69 µM (inactive) | > 85.9 µM (inactive) | 26.5 µM (inactive) | 8.83 µM (inactive) | > 100 µM (inactive) | 12.4 µM (inactive) | > 100 µM (inactive) | > 100 µM (inactive) | 6.47 µM (inactive) | 22 µM (inactive) | 15.8 µM (inactive) | > 100 µM (inactive) | 17.2 µM (inactive) | 19.4 µM (inactive) | 5.81 µM (inactive)
C=C(C(=O)O[C@H]1C/C(C)=C/CC/C(CO)=C/[C@H]2C(=O)OC(=C)[C@H]12)C(O)CO (stereo not given in full) | 21.4 µM (inactive) | 11.5 µM (inactive) | 16.3 µM (inactive) | 17.2 µM (inactive) | 18.7 µM (inactive) | 8.28 µM (inactive) | 14.4 µM (inactive) | 4.08 µM (inactive) | 18.7 µM (inactive) | 19.5 µM (inactive) | 11.5 µM (inactive) | 1.68 µM (inactive) | 18.5 µM (inactive) | 7.18 µM (inactive) | 11.7 µM (inactive) | 26.1 µM (inactive) | 16.3 µM (inactive) | 8.75 µM (inactive) | 14.5 µM (inactive) | 4.46 µM (inactive)
CCOC(=O)/C=C(/OCC)[C@@H]1C(C(=O)c2ccc(Cl)cc2)[C@H]1/C(=C\C(=O)OCC)OCC (stereo not given in full) | > 100 µM (inactive) | > 100 µM (inactive) | > 100 µM (inactive) | > 100 µM (inactive) | > 100 µM (inactive) | 96.8 µM (inactive) | > 100 µM (inactive) | 4.55 µM (inactive) | 25.5 µM (inactive) | > 100 µM (inactive) | > 100 µM (inactive) | > 45.2 µM (inactive) | > 100 µM (inactive) | 15.5 µM (inactive) | > 100 µM (inactive) | > 33.8 µM (inactive) | > 76.9 µM (inactive) | > 34.7 µM (inactive) | > 100 µM (inactive) | > 100 µM (inactive)
CNc1ncnc2c1cnn2COCC(O)CO (stereo not given) | > 100 µM (inactive) | > 100 µM (inactive) | > 100 µM (inactive) | > 100 µM (inactive) | > 100 µM (inactive) | > 100 µM (inactive) | > 100 µM (inactive) | > 100 µM (inactive) | > 100 µM (inactive) | > 100 µM (inactive) | > 100 µM (inactive) | > 100 µM (inactive) | > 100 µM (inactive) | > 100 µM (inactive) | > 100 µM (inactive) | > 100 µM (inactive) | > 100 µM (inactive) | > 100 µM (inactive) | > 100 µM (inactive) | > 100 µM (inactive)
